Experimental data as given in patent US9157104B2, “Method to improve phosphate solubilization in plants” (Consiglio Nazionale delle Ricerche, priority 2009, dated 2015).

What was measured:
S. meliloti 1021 = test: Microarray gene expression of 1021 cells treated with 0.5 mM compound; details: P-sufficient (13 mM); for pho genes among those significantly affected (microarray): 1021 + 0.5 mM compound vs untreated 1021;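 on all read-outs here: cells were harvested 3 h after the start of each treatment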
Protocol: For P starvation experiments, cells of 1021 wild-type and RD64 strains were grown at 30° C. to mid exponential phase (OD600=0.6) in RMM broth containing 1% (w/v) mannitol as carbon source and 13 mM P, washed with RMM containing 0 P, resuspended in the same medium and then divided into three cultures. No P (−P), 1.0 mM P (P-starved cells) or 13 mM P (+P cells also named P-sufficient cells) was added into the three cultures, respectively. The P-starved and P-sufficient 1021 wild type cells were treated for 3.0 hours with 0.5 mM IAA. […] To rule out that this bacteria could be partially starved for Trp, RD64 cells were also treated with 0.5 mM Trp and used for microarrays and RT-PCR analyses. […] After 3 hours of each treatment, cell batches were collected, freezed and stored at −80° C. for use in experiments.

[1] = system: pho operon genes in S. meliloti cells; test: Quantitative RT-PCR analysis of pho operon genes; assay type: cell-based; details: for phoB regulatory gene expression (qRT-PCR): P-sufficient (13 mM K-phosphate), vs untreated 1021 cells; for phoB regulatory gene expression (qRT-PCR) / expression level of all five pho genes (RT-PCR): compounds 0.5 mM, 3 hours; for expression level of all five pho genes (RT-PCR): P-starved conditions, vs control 1021
Protocol: FIG. S1. Quantitative RT-PCR analysis of pho operon genes in S. meliloti cells under P-sufficient conditions (13 mM K-phosphate). The relative expression level was >1 for genes more highly expressed in RD64 and in 1021 cells treated for 3 hours with 0.5 mM IAA, Ind, Trp, ICA and 2,4-D. The relative expression level was <1 for genes more highly expressed in 1021 cells (control). Error bars represent the standard deviation from three independent biological experiments.
FIG. 1. Quantitative RT-PCR analysis of pho operon genes expression in S. meliloti cells under P-starving conditions. The relative expression level was >1 for genes more highly expressed in RD64 and in 1021 cells treated for 3 hours with 0.5 mM IAA, Ind, Trp, ICA and 2,4-D. The relative expression level was <1 for genes more highly expressed in 1021 cells (control). Error bars represent the standard deviation from five independent biological experiments (p<0.05).
Total RNA from P-sufficient and P-starved cells was isolated as previously described (5). cDNA were synthesized with the StrataScript™ reverse transcription reagents (Stratagene) and random hexamers as primers. Quantitative PCR was performed with the Power SYBR PCR Master Mix (Applied Biosystems). Reactions were run on the iCycler iQ (Bio-Rad). The thermo cycling condition were: 15 min at 95° C., 40 cycles of denaturation at 95° C. for 20 s, annealing (20 s) and extension (35 s) at 72° C. Specific primer pairs, designed using the Primer3 software, are shown.
smc02641 and smc00128 were used as housekeeping genes for data normalization in the comparative Ct method as previously described (8). Phosphatase Activity

acid phosphatase = test: Acid phosphatase activity under P-starved conditions; assay type: cell-based, S. meliloti; details: phosphate starvation; vs 1021 cells; compounds 0.5 mM, 3 hours at 30° C.
alkaline phosphatase = details: phosphate starvation; vs 1021 cells; compounds 0.5 mM, 3 hours at 30° C.
Protocol: Acid (A) and alkaline (B) phosphatase activity in S. meliloti cells under P-starved conditions. Log-phase cells grown in a MOPS-buffered minimal medium (starting P concentration=13 mM) were washed and then resuspended in the same medium containing no added P (1021 and RD64 strains) and 0.5 mM IAA, Trp or Ind (1021 strain). Treatments were performed for 3 hours at 30° C.
Alkaline and acid phophatase enzymes under P-limiting conditions were assayed as previously reported (16). Units are reported as nanomoles per minute per milligram of protein. Protein concentrations were determined by the Bradford's assay.

[2] = 1021 + 0.5 mM ICA vs untreated 1021
[3] = 1021 + 0.5 mM Indole vs untreated 1021
[4] = 1021 + 0.5 mM Tryptophan vs untreated 1021

O=C(O)c1c[nH]c2ccccc12 [ICA, indole-3-carboxylic acid]
M (log2 ratio of intensities) SMa1077 nex18 (S. meliloti 1021; [2]): 0.9938 | M (log2 ratio of intensities) SMa1118 hspC2 (S. meliloti 1021; [2]): 1.111 | M (log2 ratio of intensities) SMa1128 degP4 (S. meliloti 1021; [2]): 1.148 | M (log2 ratio of intensities) SMa1306 virB9 (S. meliloti 1021; [2]): 0.9404 | M (log2 ratio of intensities) SMb21183 htpG (S. meliloti 1021; [2]): 0.7619 | M (log2 ratio of intensities) SMc00323 rpsO (S. meliloti 1021; [2]): −0.722 | M (log2 ratio of intensities) SMc00335 rpsA (S. meliloti 1021; [2]): −0.7763 | M (log2 ratio of intensities) SMc00514 smc00514 (S. meliloti 1021; [2]): 0.8721 | M (log2 ratio of intensities) SMc00537 smc00537 (S. meliloti 1021; [2]): 0.9583 | M (log2 ratio of intensities) SMc00868 atpF (S. meliloti 1021; [2]): −0.8306 | M (log2 ratio of intensities) SMc00912 groES1 (S. meliloti 1021; [2]): −1.491 | M (log2 ratio of intensities) SMc00913 groEL1 (S. meliloti 1021; [2]): −0.8349 | M (log2 ratio of intensities) SMc01169 ald (S. meliloti 1021; [2]): 1.71 | M (log2 ratio of intensities) SMc01309 rplC (S. meliloti 1021; [2]): −0.7558 | M (log2 ratio of intensities) SMc01326 tufB (S. meliloti 1021; [2]): −0.8768 | M (log2 ratio of intensities) SMc01534 smc01534 (S. meliloti 1021; [2]): 0.9277 | M (log2 ratio of intensities) SMc01793 smc01793 (S. meliloti 1021; [2]): −0.7625 | M (log2 ratio of intensities) SMc02498 atpH (S. meliloti 1021; [2]): −0.7281 | M (log2 ratio of intensities) SMc02603 smc02603 (S. meliloti 1021; [2]): 1.484 | M (log2 ratio of intensities) SMc03030 flgG (S. meliloti 1021; [2]): −0.7501 | M (log2 ratio of intensities) SMc03037 flaA (S. meliloti 1021; [2]): −0.7114 | M (log2 ratio of intensities) SMc03168 smc03168 (S. meliloti 1021; [2]): 1.005 | M (log2 ratio of intensities) SMc03253 smc03253 (S. meliloti 1021; [2]): 1.14 | M (log2 ratio of intensities) SMc03829 smc03829 (S. meliloti 1021; [2]): 0.9065 | M (log2 ratio of intensities) SMc04040 ibpA (S. meliloti 1021; [2]): 1.474 | M (log2 ratio of intensities) SMc04114 pilA1 (S. meliloti 1021; [2]): −0.7274 | M (log2 ratio of intensities) SMc04140 smc04140 (S. meliloti 1021; [2]): 1.126 | M (log2 ratio of intensities) SMc04307 cyaD2 (S. meliloti 1021; [2]): 1.012 | pho genes among those significantly affected (microarray) (S. meliloti 1021): did not find any pho genes | phoB regulatory gene expression (qRT-PCR) [1]: unaffected

c1ccc2[nH]ccc2c1 [Indole, indole]
M (log2 ratio of intensities) SMa1077 nex18 (S. meliloti 1021; [3]): 0.7413 | M (log2 ratio of intensities) SMa1087 sma1087 (S. meliloti 1021; [3]): 0.7199 | M (log2 ratio of intensities) SMa1128 degP4 (S. meliloti 1021; [3]): 1.152 | M (log2 ratio of intensities) SMa1329 sma1329 (S. meliloti 1021; [3]): 1.658 | M (log2 ratio of intensities) SMb21177 phoC (S. meliloti 1021; [3]): 1.282 | M (log2 ratio of intensities) SMb21183 htpG (S. meliloti 1021; [3]): 0.9544 | M (log2 ratio of intensities) SMc00182 smc00182 (S. meliloti 1021; [3]): −0.9429 | M (log2 ratio of intensities) SMc00335 rpsA (S. meliloti 1021; [3]): −0.7083 | M (log2 ratio of intensities) SMc00364 rplT (S. meliloti 1021; [3]): −1.373 | M (log2 ratio of intensities) SMc00383 gst3 (S. meliloti 1021; [3]): −0.7478 | M (log2 ratio of intensities) SMc01106 smc01106 (S. meliloti 1021; [3]): 1.513 | M (log2 ratio of intensities) SMc01291 rpmD (S. meliloti 1021; [3]): −1.485 | M (log2 ratio of intensities) SMc01308 rplD (S. meliloti 1021; [3]): −1.252 | M (log2 ratio of intensities) SMc01311 tufA (S. meliloti 1021; [3]): −0.711 | M (log2 ratio of intensities) SMc01312 fusA1 (S. meliloti 1021; [3]): 0.9128 | M (log2 ratio of intensities) SMc01318 rplL (S. meliloti 1021; [3]): −0.7037 | M (log2 ratio of intensities) SMc01946 livK (S. meliloti 1021; [3]): −1.077 | M (log2 ratio of intensities) SMc02501 atpD (S. meliloti 1021; [3]): −1.405 | M (log2 ratio of intensities) SMc02857 dnaK (S. meliloti 1021; [3]): 0.7321 | M (log2 ratio of intensities) SMc03159 smc03159 (S. meliloti 1021; [3]): −0.938 | M (log2 ratio of intensities) SMc03167 smc03167 (S. meliloti 1021; [3]): 0.7656 | M (log2 ratio of intensities) SMc03253 smc03253 (S. meliloti 1021; [3]): 1.951 | M (log2 ratio of intensities) SMc03829 smc03829 (S. meliloti 1021; [3]): 0.8604 | M (log2 ratio of intensities) SMc04040 ibpA (S. meliloti 1021; [3]): 2.449 | M (log2 ratio of intensities) SMc04087 smc04087 (S. meliloti 1021; [3]): 1.944 | M (log2 ratio of intensities) SMc04114 pilA1 (S. meliloti 1021; [3]): −1.888 | M (log2 ratio of intensities) SMc04140 smc04140 (S. meliloti 1021; [3]): 1.411 | M (log2 ratio of intensities) SMc04141 gst9 (S. meliloti 1021; [3]): 1.708 | acid phosphatase activity (acid phosphatase): unaffected, or only slightly increased | alkaline phosphatase activity (alkaline phosphatase): unaffected, or only slightly increased | expression level of all five pho genes (RT-PCR) [1]: only slightly induced or unchanged

N[C@@H](Cc1c[nH]c2ccccc12)C(=O)O [Tryptophan, tryptophan]
M (log2 ratio of intensities) SMa0707 sma0707 (S. meliloti 1021; [4]): 0.9084 | M (log2 ratio of intensities) SMa0711 sma0711 (S. meliloti 1021; [4]): 0.8863 | M (log2 ratio of intensities) SMa1007 sma1007 (S. meliloti 1021; [4]): 0.9801 | M (log2 ratio of intensities) SMa1073 sma1073 (S. meliloti 1021; [4]): 0.7423 | M (log2 ratio of intensities) SMa1087 sma1087 (S. meliloti 1021; [4]): 0.751 | M (log2 ratio of intensities) SMa1118 hspC2 (S. meliloti 1021; [4]): 0.8663 | M (log2 ratio of intensities) SMa1128 degP4 (S. meliloti 1021; [4]): 1.449 | M (log2 ratio of intensities) SMa1321 virB1 (S. meliloti 1021; [4]): 4.445 | M (log2 ratio of intensities) SMa2145 sma2145 (S. meliloti 1021; [4]): 0.9145 | M (log2 ratio of intensities) SMa2189 sma2189 (S. meliloti 1021; [4]): 0.993 | M (log2 ratio of intensities) SMb20585 ggt (S. meliloti 1021; [4]): 1.09 | M (log2 ratio of intensities) SMb20672 smb20672 (S. meliloti 1021; [4]): 1.815 | M (log2 ratio of intensities) SMb20984 nirB 4 (S. meliloti 1021; [4]): −1.11 | M (log2 ratio of intensities) SMb21566 groEL5 (S. meliloti 1021; [4]): −1.021 | M (log2 ratio of intensities) SMc00155 aroF (S. meliloti 1021; [4]): −1.565 | M (log2 ratio of intensities) SMc00182 smc00182 (S. meliloti 1021; [4]): −1.097 | M (log2 ratio of intensities) SMc01169 ald (S. meliloti 1021; [4]): 0.7379 | M (log2 ratio of intensities) SMc01293 rplR 3 (S. meliloti 1021; [4]): −0.7637 | M (log2 ratio of intensities) SMc01311 tufA (S. meliloti 1021; [4]): −0.7229 | M (log2 ratio of intensities) SMc01313 rpsG (S. meliloti 1021; [4]): −0.7518 | M (log2 ratio of intensities) SMc01314 rpsL (S. meliloti 1021; [4]): −0.7349 | M (log2 ratio of intensities) SMc01636 smc01636 (S. meliloti 1021; [4]): −0.9473 | M (log2 ratio of intensities) SMc02507 sitC (S. meliloti 1021; [4]): 1.133 | M (log2 ratio of intensities) SMc03253 smc03253 (S. meliloti 1021; [4]): 2.689 | M (log2 ratio of intensities) SMc04140 smc04140 (S. meliloti 1021; [4]): 2.032 | M (log2 ratio of intensities) SMc04141 gst9 (S. meliloti 1021; [4]): 1.581 | M (log2 ratio of intensities) SMc04147 smc04147 (S. meliloti 1021; [4]): 0.8262 | M (log2 ratio of intensities) SMc04434 rpmH (S. meliloti 1021; [4]): −0.7758 | pho genes among those significantly affected (microarray) (S. meliloti 1021): did not find any pho genes | acid phosphatase activity (acid phosphatase): unaffected, or only slightly increased | alkaline phosphatase activity (alkaline phosphatase): unaffected, or only slightly increased | expression of pho genes in RD64 cells after addition of compound ([1]; 0.5 mM added to RD64 cells, vs untreated RD64 cells, data not shown): unaffected or slightly reduced | expression level of all five pho genes (RT-PCR) [1]: only slightly induced or unchanged | phoB regulatory gene expression (qRT-PCR) [1]: unaffected
